In general, Tmax refers to the time at which the peak concentration occurs. What is called microsomal CLint is the capacity of the preparation to metabolise the compound, expressed as a volume cleared per time. A word on the half-life: it is how long it takes for the measured level to halve. For orientation: IC50 means the point on the concentration scale where inhibition reaches its midpoint. A higher IC50 goes with lower potency.

The structures appear in SMILES notation. Some results are limits rather than exact numbers.

Tested on in the first data set: not listed separately
As to the kind of experiment: Tmax in male C57B16 mouse at 3.0 mg/kg, ip. Format: ADME, organism-based. The settings on record: in vivo. More on the design: dose 3 mg/kg, route intraperitoneal.
With `c1ccc2c(-c3cnn4cc(-c5ccc(N6CCNCC6)cc5)cnc34)ccnc2c1`, the Tmax was < 5 min.

Tested on in another data set: not listed separately
As to the kind of experiment: Metabolic stability in mouse liver microsomes assessed as intrinsic clearance. Format: ADME, Microsome.
Details: not given
For orientation: Liver microsomes are vesicles of endoplasmic reticulum, rich in cytochrome P450 enzymes.
With `CN1CCN(CCOc2ccc(-c3cnc4c(-c5ccnc6ccccc56)cnn4c3)cc2)CC1`, the microsomal CLint stood at 104 µL/min/mg.

Tested on in another data set: not listed separately
As to the kind of experiment: Half life in female C57B16 mouse at 3.0 mg/kg, ip. The data set is classed as ADME, organism-based. More on the design: dose 3 mg/kg, route intraperitoneal. The following applies: in vivo.
The molecule `c1ccc2c(-c3cnn4cc(-c5ccc(N6CCNCC6)cc5)cnc34)ccnc2c1` had a half-life of 96 min.

Tested on in another data set: not listed separately
Description: Tmax in female C57B16 mouse at 3.0 mg/kg, ip. The data set is classed as ADME, organism-based. The arrangement: dose 3 mg/kg, route intraperitoneal. The settings on record: in vivo.
For the molecule `c1ccc2c(-c3cnn4cc(-c5ccc(N6CCNCC6)cc5)cnc34)ccnc2c1`, the Tmax is < 5 min.

Tested on in the next data set: not listed separately
As to the kind of experiment: Metabolic stability in mouse liver microsomes assessed as half life. The data set is classed as ADME, Microsome.
Details: not given
In the case of `CN1CCN(CCOc2ccc(-c3cnc4c(-c5ccnc6ccccc56)cnn4c3)cc2)CC1`, the half-life was 13.3 min.

The target of a further data set is T1, Bone morphogenetic protein 4 (Homo sapiens, UniProt P12644).
T1 sequence (P12644 whole entry): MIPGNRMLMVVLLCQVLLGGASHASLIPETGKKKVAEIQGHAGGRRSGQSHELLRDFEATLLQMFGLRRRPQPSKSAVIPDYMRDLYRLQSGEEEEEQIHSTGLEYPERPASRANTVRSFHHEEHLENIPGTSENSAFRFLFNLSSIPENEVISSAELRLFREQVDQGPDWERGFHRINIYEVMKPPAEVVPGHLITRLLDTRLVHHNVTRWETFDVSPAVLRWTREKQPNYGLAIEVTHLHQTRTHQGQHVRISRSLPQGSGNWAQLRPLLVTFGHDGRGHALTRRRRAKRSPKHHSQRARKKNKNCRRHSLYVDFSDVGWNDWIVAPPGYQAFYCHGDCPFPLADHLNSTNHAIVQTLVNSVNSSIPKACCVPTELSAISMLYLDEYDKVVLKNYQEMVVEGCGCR
Description: Inhibition of BMP4-induced phosphorylation of SMAD 1/5/8 by cytoblot cellular ELISA.
Details: not given
As for `c1cncc(-c2cnn3cc(-c4ccc(OCCN5CCCCC5)cc4)cnc23)c1`, the IC50 was > 20000 nM.

With `c1cc(-c2cnn3cc(-c4ccc(OCCN5CCOCC5)cc4)cnc23)ccn1`, half-maximal inhibition (IC50) was put at 2000 nM.

In turn, `COc1ccc(-c2cnc3c(-c4ccncc4)cnn3c2)cc1` returned an IC50 of 6500 nM.

On to `COc1ccc(-c2cnc3c(-c4cnc5ccccc5c4)cnn3c2)cc1`, for which the IC50 was > 20000 nM.

Consider `CN1CCN(CCOc2ccc(-c3cnc4c(-c5ccncc5)cnn4c3)cc2)CC1`, for which half-maximal inhibition (IC50) required 450 nM.

`c1cc2ncc(-c3ccc(OCCN4CCCCC4)cc3)cn2n1`: the IC50 was > 20000 nM.

Regarding `COc1ccc(-c2cnc3c(-c4cccc5cccnc45)cnn3c2)cc1`, the IC50 was > 20000 nM.

Molecule `Oc1ccc(-c2cnc3c(-c4ccnc5ccccc45)cnn3c2)cc1` showed an IC50 of 250 nM. This lies in the sub-micromolar range.

As for `COc1ccc(-c2cnc3c(-c4ccnc5ccccc45)ccn3c2)cc1`, the IC50 is > 20000 nM.

Molecule `c1ccc2c(-c3ccn4cc(-c5ccc(OCCN6CCCCC6)cc5)cnc34)ccnc2c1` had an IC50 of 2600 nM.

Take `COc1ccc(-c2ccc3c(-c4ccnc5ccccc45)cnn3c2)cc1`: the IC50 came to 150 nM.

As for `c1ccc2c(-c3cnn4cc(-c5ccc(N6CCNCC6)cc5)ccc34)ccnc2c1`, 5 nM corresponded to half-maximal inhibition (IC50).

Take `c1ccc(-c2cnn3cc(-c4ccc(OCCN5CCCCC5)cc4)cnc23)cc1`: the IC50 is > 20000 nM.

`CN1CCN(CCOc2ccc(-c3cnc4c(-c5ccncc5F)cnn4c3)cc2)CC1` displayed a half-maximal inhibitory concentration (IC50) of 3300 nM.

The molecule `c1cc(-c2cnc3c(-c4ccnc5ccccc45)cnn3c2)cc(N2CCNCC2)c1` returned an IC50 of 20000 nM.

`Clc1ccc2c(-c3cnn4cc(-c5ccc(N6CCNCC6)cc5)cnc34)ccnc2c1` gave an IC50 of 350 nM.

For `Cc1nn2cc(-c3ccc(OCCN4CCN(C)CC4)cc3)cnc2c1-c1ccncc1`, the IC50 was > 20000 nM.

`CN1CCN(CCOc2cccc(-c3cnc4c(-c5ccncc5)cnn4c3)c2)CC1` gave an IC50 of 4500 nM.

`CN1CCN(CCOc2ccc(-c3cnc4c(-c5ccnc6ccccc56)cnn4c3)cc2)CC1` yielded an IC50 of 10 nM.

`c1ccc2c(-c3cnn4cc(-c5ccc(OCCN6CCCCC6)cc5)cnc34)ccnc2c1` displayed an IC50 of 90 nM. Against the preceding molecule, the IC50 is about 9-fold higher.

In turn, `c1ccc(-c2cnc3c(-c4ccnc5ccccc45)cnn3c2)cc1` yielded an IC50 of 750 nM.

For `COC(=O)c1cc(-c2ccnc3ccccc23)c2ncc(-c3ccc(OC)cc3)cn12`, the IC50 was > 20000 nM.

The molecule `COc1ccc(-c2cnc3c(-c4cccc5ncccc45)cnn3c2)cc1` came in with an IC50 of 3000 nM.

For `CCN(CC)CCOc1ccc(-c2cnc3c(-c4ccncc4)cnn3c2)cc1`, the IC50 came out at 500 nM.

In turn, `COc1ccc(-c2cnc3c(-c4ccnc5ccccc45)cnn3c2)cc1` came in with an IC50 of 55 nM.

`COc1ccc(-c2cnc3c(-c4ccnc5cc(Cl)ccc45)cnn3c2)cc1` displayed an IC50 of 500 nM.

As for `c1ccc2c(-c3cnn4cccnc34)ccnc2c1`, the IC50 stood at 5000 nM. Compared with the last molecule, the IC50 is about 10-fold higher.

Molecule `c1ccc2c(-c3cnn4cc(-c5ccc(N6CCNCC6)cc5)cnc34)ccnc2c1` yielded an IC50 of 4.9 nM.

Consider `COc1ccc(-c2cnc3c(-c4ccc5ncccc5c4)cnn3c2)cc1`, for which the IC50 was > 20000 nM.

For the molecule `c1cc(-c2cnn3cc(-c4ccc(OCCN5CCCCC5)cc4)cnc23)ccn1` [DORSOMORPHIN], it took 430 nM to reach half-maximal inhibition (IC50).

Values taken from ChEMBL document CHEMBL1155860, “Structure-activity relationship study of bone morphogenetic protein (BMP) signaling inhibitors” (Bioorg Med Chem Lett, 2008).
